Source: patent US11325937B2, “Glycoside compound and preparation method therefor, composition, application, and intermediate” (SHANGHAI HUTCHISON PHARMACEUTICALS LIMITED, priority 2018, dated 2022)

What was measured:
[1] = system: HUVEC-12 endothelial cells; test: Tubule formation of HUVEC-12 endothelial cells (Matrigel); type: cell-based, Human
Experimental: The experiment included seven groups. In Group 1, HUVEC-12 endothelial cells (purchased from Shanghai RongChuang Biotech Co., Ltd.) were treated directly with simple DMEM medium (Gibcol, Shanghai) containing 10% FBS (SERANA, Germany) (control). In Group 2, the endothelial cells were treated with the supernatant obtained 24 h after macrophages were cultured with DMEM medium containing 10% FBS (s-control). In Group 3, the endothelial cells cultured with DMEM medium containing 10% FBS were treated directly with TG-028 (TG-028, 10 μM). In Group 4, the endothelial cells were treated with the supernatant obtained after macrophages cultured with DMEM medium containing 10% FBS were treated and co-incubated with TG-028 for 24 h (s-TG-028, […]). In Group 5, the endothelial cells cultured with DMEM medium containing 10% FBS were treated directly with Cpd-18 (Salvianolate) (cpd-18, 10 μM). In Group 6, the endothelial cells were treated with the supernatant obtained after macrophages cultured with DMEM medium containing 10% FBS were treated and co-incubated with Cpd-18 (Salvianolate, 10 μM) for 24 h (s-cpd18). In Group 7, the endothelial cells cultured with DMEM medium containing 10% FBS were treated directly with VEGFD (Recombinant Human VEGF165, 10 ng/mL).
A 96-well plate and sterile yellow pipette tip were stored overnight in a refrigerator at −20° C. The packed Matrigel was thawed overnight in a refrigerator at 4° C. before the experiment. On the following day, the Matrigel thawed was centrifuged for a few minutes. 60 μL per well of the pre-cooled Matrigel was added to a 96-well plate in an ice bath on a ultra-clean bench, and then allowed to stand in an incubator for 1 h. After Matrigel was solidified, HUVEC-12 cells in logarithmic growth phase were taken and adjusted for the cell density. The cells were well mixed with each group of medium at a density of 5×10^4 cells/well and inoculated into a 96-well plate. […] The tube-like structure was analyzed by ImageJ image-analysis software, and the tube formation ability was evaluated using number of master junction as a quantitative index.

[2] = system: rats with permanent ligation of bilateral common carotid arteries (2VO); test: Chronic cerebral ischemia model in rats with permanent ligation of bilateral common carotid arteries (2VO); type: in vivo
Text: After obtaining the active molecules that can promote the expression of VEGF-A mRNA in the animal model of inflammatory angiogenesis, a rat model of cerebral infarction was used for further verification. Following the method as described in Longa, E. Z., Longa, E. Z., Weinstein, P. R., Carlson, S. & Commin, R. Reversible middle cerebral artery occlusion without craniectomy in rats. [J]. Stroke, 1989. 1: 84-91, an acute cerebral infarction model was established in rats with middle cerebral artery occlusion (MCAO); and following the method as described in C. dela Torre, T. Fortin, G. A. S. Park, K. S. Butler, P. Kozlowski, B. A. Pappas, H. de Socarraz, J. K. Saunders and M. T. Richard. [J]. Brain Research, 1992. 582:186-195, a chronic cerebral ischemia model was established in rats with permanent ligation of bilateral common carotid arteries (2VO). The inhibition on cerebral infarction and neuroprotection for brain injury of the active molecules screened in Effect Example 2 were verified.
In the later period of the present invention, a chronic cerebral ischemia model was established in rats with permanent ligation of bilateral common carotid arteries (2VO). TG-028 (5 mg/kg) was administered to 5 rats in each group daily by intraperitoneal injection for 3 weeks. The effects of TG-028 and the control drug Edaravone (40 mg/kg) in the rat model of chronic cerebral ischemia were observed.
3 weeks after the establishment of the rat model of 2VO chronic cerebral ischemia, the Morris water maze experiment was performed on the test rats to determine the effects of drugs on animal learning and memory. The test rats were subjected to ambient positioning and memory training for 5 days. On Day 5 of the training, a positioning navigation experiment was carried out, and the duration for each group of rats from the time of entering the water from different water entry points facing the pool wall to the time of finding the platform, that is, the escape incubation period, was recorded. On Day 6, the platform was removed and a space exploration experiment was carried out. The swimming time of the rats in the target quadrant, the dwell time in the target quadrant, the distance in the target quadrant, and the number of passes through the platform were recorded in 120 s from the time of entering water from a quadrant opposing the target quadrant. The results of the water maze positioning and navigation experiment are shown in FIG. 8 (where Sham is a sham operation group).
After permanent ligation of the bilateral common carotid arteries, a 5-day positioning training was carried out, and […] Morris water maze space exploration experiment was performed after the training.

[3] = Acute toxicity test of TG-028; type: in vivo
Experimental: In addition, an acute toxicity test of TG-028 was conducted.

COc1ccc(CCCCO[C@@H]2O[C@H](CO)[C@@H](O)[C@H](O)[C@H]2O)cc1 [TG-028]
effect on tube formation of endothelial cells (in words) ([1]; HUVEC-12 treated with supernatant of macrophages co-incubated 24 h with compound, 10 μM (s- groups)): comparable effect on the tube formation of endothelial cells as VEGF | effect on tube formation of endothelial cells (in words) ([1]; direct treatment of HUVEC-12, 3 h, compounds 10 μM, VEGF165 10 ng/mL, vs control medium): significant effect on the tube formation of endothelial cells | HE staining and Nissl staining of brain sections, hippocampal CA3 neurons (in words) ([2]; 3 weeks after chronic cerebral ischemia, compared with 2VO+NaCl, FIG. 10): neatly and densely arranged | Morris water maze positioning and navigation: escape incubation period and total distance (in words) ([2]; TG-028 5 mg/kg, Edaravone 40 mg/kg, 3 weeks of administration, FIG. 8): comparable effect | Morris water maze space exploration: number of passes through the platform compared with 2VO+NaCl group ([2]; TG-028 5 mg/kg, Edaravone 40 mg/kg, 3 weeks, FIG. 9): increases significantly | change in body weight compared with sham operation group (in words) ([2]; TG-028 5 mg/kg, Edaravone 40 mg/kg, i.p. daily, after 1 week, FIG. 7): no difference in weight change between the treatment group with TG-028 and the sham operation group | therapeutic index LD50/ED50 ([3]; 616.59/2.61): 236 | LD50 ([3]; in vivo, acute toxicity test): 617 mg/kg
